From publication PMC6199744, “Development of Chemical Proteomics for the Folateome and Analysis of the Kinetoplastid Folateome” (ACS Infectious Diseases, 2018)
Like-named read-outs stand apart in the source and are kept apart here.

Test system: T. brucei lysate proteins
Type: binding, Trypanosoma brucei
Settings: vehicle control = 1

For NCCCNc1ccc(C(=O)NC(CCC(=O)O)C(=O)O)cc1 (centres unmarked) [compound 7], the “fold change vs vehicle control” value (protein TB427.04.760 GAMMA-ADAPTIN 1, PUTATIVE) was 0.84, the fold change (protein TB427.05.1210 SHORT-CHAIN DEHYDROGENASE, PUTATIVE) was 0.95 and the “fold change vs vehicle control” value (protein TB427.05.1320 HY[…], CONSERVED) was 0.92. For the same compound, the fold change (protein TB427.05.3030 INTR[…] PROTEIN IFT122, PUTATIVE) was 0.96, the “fold change vs vehicle control” value (protein TB427.05.4560 GUANINE DEAMINASE, PUTATIVE) was 0.91 and the “fold change vs vehicle control” value (protein TB427.06.1070 HY[…], CONSERVED) was 1.17. It also gave a fold change (protein TB427.06.2550 RNA-BINDING PROTEIN, PUTATIVE) of 1.51, a fold change (protein TB427.06.3500 ENDOSOMAL T[…] RME-8, PUTATIVE) of 0.89 and a fold change (protein TB427.06.3630 SPHINGOSINE 1-PHOSPHATE LYASE, PUTATIVE) of 0.95. The fold change (protein TB427.06.3650 ADP-RI[…], PUTATIVE) was 0.97, the fold change (protein TB427.06.3670 PAR[…] COMPONENT, PUTATIVE) was 1 and the fold change (protein TB427.06.700 ALANYL-TRNA SYNTHETASE, PUTATIVE) was 0.84. For the same compound, the “fold change vs vehicle control” value (protein TB427.07.1300 PROTEIN DISULFIDE ISOMERASE, PUTATIVE) was 1.3, the “fold change vs vehicle control” value (protein TB427.07.3160 DYNEIN HEAVY CHAIN, CYTOSOLIC, PUTATIVE) was 0.87 and the fold change (protein TB427.07.3980 IMMU[…], PUTATIVE) was 0.91. The “fold change vs vehicle control” value (protein TB427.07.4170 FATTY ACID ELONGASE, PUTATIVE) was 0.97, the fold change (protein TB427.07.4180 FATTY ACID ELONGASE, PUTATIVE) was 1.1 and the fold change (protein TB427.07.4970 GLUTAMINE SYNTHETASE, PUTATIVE) was 0.98. For the same compound, the “fold change vs vehicle control” value (protein TB427.07.7500 THYMINE-7-HYDROXYLASE, PUTATIVE) was 0.95, the “fold change vs vehicle control” value (protein TB427.08.1210 HY[…], CONSERVED) was 1.49 and the fold change (protein TB427.08.2060 HY[…], CONSERVED) was 0.91. For the same compound, the fold change (protein TB427.08.2080 HY[…], CONSERVED) was 0.91, the fold change (protein TB427.08.3150 T-COMPLEX PROTEIN 1, GAMMA SUBUNIT, PUTATIVE) was 0.97 and the fold change (protein TB427.08.4210 HY[…], CONSERVED) was 0.91. It also gave a fold change (protein TB427.08.5760 HY[…], CONSERVED) of 0.99, a fold change (protein TB427.10.10350 PROTEIN KINASE, PUTATIVE) of 0.62 and a fold change (protein TB427.10.10360 MICROTUBULE-[…], PUTATIVE) of 0.85. For the same compound, the fold change (protein TB427.10.1060 T-COMPLEX PROTEIN 1, DELTA SUBUNIT, PUTATIVE) was 0.96, the “fold change vs vehicle control” value (protein TB427.10.10610 PROTEIN TYROSINE PHOSPHATASE, PUTATIVE) was 1.47 and the fold change (protein TB427.10.1070 CELL DIVISION PROTEIN KINASE 2 HOMOLOG 1 (CRK1)) was 0.93. For the same compound, the “fold change vs vehicle control” value (protein TB427.10.11760 PUMILIO/PUF RNA BINDING PROTEIN 6) was 0.99, the fold change (protein TB427.10.12710 HEAT SHOCK PROTEIN, PUTATIVE) was 0.77 and the “fold change vs vehicle control” value (protein TB427.10.12820 HY[…], CONSERVED) was 0.93. The “fold change vs vehicle control” value (protein TB427.10.12890 BI[…]-TRNA SYNTHETASE, PUTATIVE) was 0.98, the fold change (protein TB427.10.14140 PYRUVATE KINASE 1) was 0.86 and the “fold change vs vehicle control” value (protein TB427.10.14180 PROTEIN TRANSPORT PROTEIN SEC13, PUTATIVE) was 0.89. For the same compound, the “fold change vs vehicle control” value (protein TB427.10.14470 INTR[…] PROTEIN IFT140, PUTATIVE) was 1.33, the fold change (protein TB427.10.1450 HY[…], CONSERVED) was 0.88 and the fold change (protein TB427.10.14860 HY[…], CONSERVED) was 0.95. For the same compound, the “fold change vs vehicle control” value (protein TB427.10.14950 RNA BINDING PROTEIN, PUTATIVE) was 1.37, the fold change (protein TB427.10.2350 PYRUVATE DEH[…] E3 BINDING PROTEIN, PUTATIVE) was 0.93 and the fold change (protein TB427.10.2440 METACASPASE MCA4) was 0.83. The “fold change vs vehicle control” value (protein TB427.10.3470 HY[…], CONSERVED) was 1.2, the fold change (protein TB427.10.4610 […]-MANNOSE SYNTHASE, PUTATIVE) was 0.98 and the “fold change vs vehicle control” value (protein TB427.10.5810 HY[…], CONSERVED) was 0.88. For the same compound, the fold change (protein TB427.10.5840 T[…] 1-BETA, PUTATIVE) was 0.92, the fold change (protein TB427.10.5850 HY[…], CONSERVED) was 0.88 and the fold change (protein TB427.10.6150 […]/BEIGE PROTEIN, PUTATIVE) was 0.99. The fold change (protein TB427.10.6310 MAJOR VAULT PROTEIN, PUTATIVE) was 0.93, the fold change (protein TB427.10.730 ATP SYNTHASE, PUTATIVE) was 0.84 and the “fold change vs vehicle control” value (protein TB427.10.7410 SUCCINYL-COA LIGASE GDP-FORMING] BETA-CHAIN, PUTATIVE) was 0.94. The fold change (protein TB427.10.8190 T-COMPLEX PROTEIN 1, THETA SUBUNIT, PUTATIVE) was 0.94, the “fold change vs vehicle control” value (protein TB427.10.8230 PROTEIN DISULFIDE ISOMERASE) was 1.25 and the fold change (protein TB427.10.8720 HY[…], CONSERVED) was 1. The “fold change vs vehicle control” value (protein TB427.10.8850 HY[…], CONSERVED) was 0.93, the fold change (protein TB427.10.9890 HY[…], CONSERVED) was 0.65 and the fold change (protein TB927.10.12960 RAS-RELATED PROTEIN RAB-5) was 0.98. For the same compound, the fold change (protein TB927.10.1550 […]-ATP-ASE SUBUNIT 5) was 0.9, the fold change (protein TB927.1.2330 BETA TUBULIN) was 0.99 and the “fold change vs vehicle control” value (protein TB927.10.2890 ENOLASE) was 0.91. For the same compound, the fold change (protein TB927.10.3660 ASPARTATE AMINOTRANSFERASE) was 0.96, the fold change (protein TB927.10.4180 TFIIF-[…] PHOSPHATASE, PUTATIVE) was 0.87 and the fold change (protein TB927.10.5500 HY[…], CONSERVED) was 0.99. The fold change (protein TB927.10.6050 CLATHRIN HEAVY CHAIN) was 0.87, the “fold change vs vehicle control” value (protein TB927.10.8030 HY[…], CONSERVED) was 1 and the “fold change vs vehicle control” value (protein TB927.10.8940 HY[…], CONSERVED) was 0.97. The fold change (protein TB927.2.100 RETRO[…] SPOT (RHS) PROTEIN, PUTATIVE,RETRO[…] SPOT PROTEIN 1 (RHS1), PUTATIVE) was 0.9, the “fold change vs vehicle control” value (protein TB927.2.2440 […]-ATPASE SUBUNIT 6) was 1.85 and the fold change (protein TB927.2.3800 MRNA […], PUTATIVE) was 0.77. For the same compound, the fold change (protein TB927.3.1240 PROTEIN PHOSPHATASE 2A, PUTATIVE) was 0.77, the “fold change vs vehicle control” value (protein TB927.3.2960 INOSINE-ADENOSINE-GUANOSINE-[…]) was 0.82 and the fold change (protein TB927.3.3190 SERINE/THREONINE-PROTEIN KINASE, PUTATIVE) was 0.89. The “fold change vs vehicle control” value (protein TB927.3.3450 ADP-RI[…]-LIKE PROTEIN 3A, PUTATIVE) was 0.76, the fold change (protein TB927.3.3780 TRYPAREDOXIN) was 0.9 and the “fold change vs vehicle control” value (protein TB927.3.5120 HY[…], CONSERVED (Ankyrin repeats (3 copies), putative)) was 1.2. The “fold change vs vehicle control” value (protein TB927.3.740 HY[…], CONSERVED) was 0.97, the fold change (protein TB927.4.3590 T[…] 1-BETA, PUTATIVE) was 0.77 and the fold change (protein TB927.5.3220 SIGNAL PEPTIDASE TYPE I, PUTATIVE) was 0.9. For the same compound, the “fold change vs vehicle control” value (protein TB927.5.4440 DYNEIN LIGHT CHAIN, PUTATIVE) was 1.1, the fold change (protein TB927.6.2200 HY[…], CONSERVED) was 0.97 and the fold change (protein TB927.6.4460 S-ADENOSYLMETHIONINE DECARBOXYLASE) was 0.97. The “fold change vs vehicle control” value (protein TB927.6.560 CYSTEINE PEPTIDASE C (CPC)) was 1, the “fold change vs vehicle control” value (protein TB927.7.4470 HY[…], CONSERVED) was 1.22 and the fold change (protein TB927.7.6320 HY[…], CONSERVED) was 0.96. For the same compound, the “fold change vs vehicle control” value (protein TB927.7.7430 ATP SYNTHASE ALPHA CHAIN, MIT[…]) was 0.93, the fold change (protein TB927.8.1990 PEROXIDOXIN) was 0.67 and the “fold change vs vehicle control” value (protein TB927.8.4810 PROHIBITIN 1) was 0.99. It also gave a fold change (protein TB927.8.890 SMALL GTP-BINDING PROTEIN RAB1, PUTATIVE) of 0.93 and a fold change (protein TB-292 MEMBRANE ASSOCIATED PROTEIN) of 0.93.
